Test results reported in patent publication US20230104936A1, “TRPML MODULATORS” (Casma Therapeutics, Inc., priority 2019, published 2023).

System: TFEB
Assay: TFEB nuclear translocation assay, HeLa wt cells
Format: cell-based
Settings: 2 hrs compound treatment, Table 1 does not say HeLa wt or TRPML1 KO
Method in brief: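 Using 20× epifluorescence of fixed, anti-TFEB-stained HeLa wt cells treated 2 hrs with compound, nuclear versus perinuclear ring intensity was quantified over four fields per well, yielding AC50 values.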

Cc1nn(S(=O)(=O)c2ccc(S(=O)(=O)N(C)C)cc2)cc1C1CCN(c2ccc(Cl)cc2F)CC1 [Compound A-38, 4-({4-[1-(4-chloro-2-fluorophenyl)piperidin-4-yl]-3-methyl-1H-pyrazol-1-yl}sulfonyl)-N,N-dimethylbenzene-1-sulfonamide]
AC50 (Homo sapiens, HeLa, 2 h): ≤ 2000 nM

CN(C)S(=O)(=O)c1ccc(S(=O)(=O)Nc2ccccc2N2CCN(C(=O)C3CC34CC4)CC2)cc1 (stereo not shown) [Compound A-462, N1,N1-dimethyl-N4-[2-(4-{spiro[2.2]pentane-1-carbonyl}piperazin-1-yl)phenyl]benzene-1,4-disulfonamide]
AC50 (Homo sapiens, HeLa, 2 h): 2010 to 8000 nM

O=S(=O)(Nc1ccccc1N1CCC(c2ccc(Cl)cc2F)CC1)c1ccc(C(F)(F)F)cc1 [Compound A-83, N-{2-[4-(4-chloro-2-fluorophenyl)piperidin-1-yl]phenyl}-4-(trifluoromethyl)benzene-1-sulfonamide]
AC50 (Homo sapiens, HeLa, 2 h): ≤ 2000 nM

CN(C)S(=O)(=O)c1ccc(S(=O)(=O)Nc2cccc(F)c2N2CCC3(CCC(=O)N3)CC2)cc1 [Compound A-796, N4-(3-fluoro-2-{2-oxo-1,8-diazaspiro[4.5]decan-8-yl}phenyl)-N1,N1-dimethylbenzene-1,4-disulfonamide]
AC50 (Homo sapiens, HeLa, 2 h): ≥ 10000 nM

O=C(Nc1cccc(Cl)c1N1CCOCC1)c1ccc2c(c1)CCC2 [Compound A-366, N-[3-chloro-2-(morpholin-4-yl)phenyl]-2,3-dihydro-1H-indene-5-carboxamide]
AC50 (Homo sapiens, HeLa, 2 h): ≥ 10000 nM

CN(C)S(=N)(=O)c1ccc(S(=O)(=O)Nc2cccc(F)c2N2CCC(CN3CC4CCC(C3)O4)CC2)cc1 (stereo not shown) [Compound A-852, N-(2-(4-((8-oxa-3-azabicyclo[3.2.1]octan-3-yl)methyl)piperidin-1-yl)-3-fluorophenyl)-4-(N,N-dimethylsulfamidimidoyl)benzenesulfonamide]
AC50: ≤ 2000 nM

COCCOCC1(C)CCN(c2ccccc2NS(=O)(=O)c2ccc(S(=O)(=O)N(C)C)cc2)CC1 [Compound A-518, N4-(2-{4-[(2-methoxyethoxy)methyl]-4-methylpiperidin-1-yl}phenyl)-N1,N1-dimethylbenzene-1,4-disulfonamide]
AC50 (Homo sapiens, HeLa, 2 h): ≤ 2000 nM

COc1ccc(S(=O)(=O)Nc2ccc3c(cnn3C)c2N2CCN(c3ncc(Cl)cc3F)CC2)cc1 [Compound A-140, N-{4-[4-(5-chloro-3-fluoropyridin-2-yl)piperazin-1-yl]-1-methyl-1H-indazol-5-yl}-4-methoxybenzene-1-sulfonamide]
AC50 (Homo sapiens, HeLa, 2 h): ≤ 2000 nM

CNC(=O)C1(c2ccc(F)cc2F)CCN(c2ccccc2NS(=O)(=O)c2ccc(S(=O)(=O)N(C)C)cc2)CC1 [Compound A-216, 4-(2,4-difluorophenyl)-1-{2-[4-(dimethylsulfamoyl)benzenesulfonamido]phenyl}-N-methylpiperidine-4-carboxamide]
AC50 (Homo sapiens, HeLa, 2 h): ≤ 2000 nM

CN(C)S(=O)(=O)c1ccc(S(=O)(=O)Nc2cc(Cl)ccc2N2CCOCC2)nc1 [Compound A-330, N2-[5-chloro-2-(morpholin-4-yl)phenyl]-N5,N5-dimethylpyridine-2,5-disulfonamide]
AC50 (Homo sapiens, HeLa, 2 h): ≥ 10000 nM

CN(C)S(=O)(=O)c1ccc(S(=O)(=O)Nc2ccccc2N2CCCC3(COC3)C2)cc1 [Compound A-507, N1,N1-dimethyl-N4-(2-{2-oxa-6-azaspiro[3.5]nonan-6-yl}phenyl)benzene-1,4-disulfonamide]
AC50 (Homo sapiens, HeLa, 2 h): 2010 to 8000 nM

COCC1(C)CCN(c2ccccc2NS(=O)(=O)c2ccc(C)c(F)c2)CC1 [Compound A-617, 3-fluoro-N-{2-[4-(methoxymethyl)-4-methylpiperidin-1-yl]phenyl}-4-methylbenzene-1-sulfonamide]
AC50 (Homo sapiens, HeLa, 2 h): 2010 to 8000 nM

CC1(C)CC2(CCN(c3ccccc3NS(=O)(=O)C3=Cc4ccccc4CC3)CC2)CO1 [Compound A-676, N-(2-{3,3-dimethyl-2-oxa-8-azaspiro[4.5]decan-8-yl}phenyl)-3,4-dihydronaphthalene-2-sulfonamide]
AC50 (Homo sapiens, HeLa, 2 h): 2010 to 8000 nM

CN(C)S(=O)(=O)c1ccc(S(=O)(=O)Nc2ccccc2N2CCN(CC(F)(F)C(F)F)CC2)cc1 [Compound A-551, N1,N1-dimethyl-N4-{2-[4-(2,2,3,3-tetrafluoropropyl)piperazin-1-yl]phenyl}benzene-1,4-disulfonamide]
AC50 (Homo sapiens, HeLa, 2 h): ≤ 2000 nM

CN(C)S(=O)(=O)c1ccc(S(=O)(=O)Nc2ccccc2N2CCC(CCCN3CCOCC3)CC2)cc1 [Compound A-547, N1,N1-dimethyl-N4-(2-{4-[3-(morpholin-4-yl)propyl]piperidin-1-yl}phenyl)benzene-1,4-disulfonamide]
AC50 (Homo sapiens, HeLa, 2 h): ≤ 2000 nM

Cc1cccc(S(=O)(=O)Nc2ccccc2N2CCC3(CC2)COC(C)(C)C3)c1 [Compound A-665, N-(2-{3,3-dimethyl-2-oxa-8-azaspiro[4.5]decan-8-yl}phenyl)-3-methylbenzene-1-sulfonamide]
AC50 (Homo sapiens, HeLa, 2 h): 2010 to 8000 nM

CNC(=O)c1cccc(NS(=O)(=O)c2ccc(S(=O)(=O)N(C)C)cc2)c1N1CCCCC1 [Compound A-809, 3-[4-(dimethylsulfamoyl)benzenesulfonamido]-N-methyl-2-(piperidin-1-yl)benzamide]
AC50 (Homo sapiens, HeLa, 2 h): ≥ 10000 nM

O=C(NC1CC1)c1ccc(S(=O)(=O)Nc2ccccc2N2CCC(c3ccc(Cl)cc3F)CC2)cc1 [Compound A-45, 4-({2-[4-(4-chloro-2-fluorophenyl)piperidin-1-yl]phenyl}sulfamoyl)-N-cyclopropylbenzamide]
AC50 (Homo sapiens, HeLa, 2 h): 2010 to 8000 nM

CP(C)(=O)c1ccc(S(=O)(=O)Nc2ccccc2N2CCN(c3ccc(F)cc3F)CC2)cc1 [Compound A-165, N-{2-[4-(2,4-difluorophenyl)piperazin-1-yl]phenyl}-4-(dimethylphosphoryl)benzene-1-sulfonamide]
AC50 (Homo sapiens, HeLa, 2 h): 2010 to 8000 nM

COCCS(=O)(=O)Nc1cccc(Cl)c1N1CCOCC1 [Compound A-364, N-[3-chloro-2-(morpholin-4-yl)phenyl]-2-methoxyethane-1-sulfonamide]
AC50 (Homo sapiens, HeLa, 2 h): ≥ 10000 nM

CNS(=O)(=O)c1ccc(S(=O)(=O)Nc2ccccc2N2CCC(c3ccc(Cl)cc3F)CC2)cc1 [Compound A-424, N1-{2-[4-(4-chloro-2-fluorophenyl)piperidin-1-yl]phenyl}-N4-methylbenzene-1,4-disulfonamide]
AC50 (Homo sapiens, HeLa, 2 h): 2010 to 8000 nM

O=S(=O)(Nc1cc(Cl)ccc1N1CCC(c2ccc(Cl)cc2F)CC1)c1ccc2c(c1)CCC2 [Compound A-313, N-{5-chloro-2-[4-(4-chloro-2-fluorophenyl)piperidin-1-yl]phenyl}-2,3-dihydro-1H-indene-5-sulfonamide]
AC50 (Homo sapiens, HeLa, 2 h): ≤ 2000 nM

CN(C)S(=O)(=O)c1ccc(S(=O)(=O)Nc2cccc(N3CCC(c4ccc(Cl)cc4F)CC3)n2)cc1 [Compound A-134, N4-{6-[4-(4-chloro-2-fluorophenyl)piperidin-1-yl]pyridin-2-yl}-N1,N1-dimethylbenzene-1,4-disulfonamide]
AC50 (Homo sapiens, HeLa, 2 h): ≥ 10000 nM

COc1ccc(S(=O)(=O)Nc2ccccc2N2CCC(c3ccc(F)cc3F)CC2)cn1 [Compound A-123, N-{2-[4-(2,4-difluorophenyl)piperidin-1-yl]phenyl}-6-methoxypyridine-3-sulfonamide]
AC50 (Homo sapiens, HeLa, 2 h): 2010 to 8000 nM

CN(C)S(=O)(=O)c1ccc(S(=O)(=O)Nc2ccccc2N2CCC(O)(c3ccc(Cl)cc3F)CC2)cc1 [Compound A-115, N4-{2-[4-(4-chloro-2-fluorophenyl)-4-hydroxypiperidin-1-yl]phenyl}-N1,N1-dimethylbenzene-1,4-disulfonamide]
AC50 (Homo sapiens, HeLa, 2 h): ≤ 2000 nM
